Assay results published in patent US4166114A, “Aminoglycoside antibiotic derivatives and method of use” (Shionogi & Co., Ltd., priority 1976, dated 1979).
Values after ≈ are worked out from the molar mass of the structure shown. Like-named read-outs stand apart in the source and are kept apart here.

Experiments:
[1] = tested on: Pseudomonas aeruginosa TB-151; assay: MIC (minimum inhibitory concentration); format: cell-based; settings: tobramycin resistant organism
Proteus vulgaris TB-162 = assay: MIC (minimum inhibitory concentration); format: cell-based; settings: tobramycin resistant organism
[2] = Pseudomonas aeruginosa, TB151, Table 3, read-out: MIC
[3] = Proteus vulgaris, TB162, Table 3, read-out: MIC
[4] = Pseudomonas aeruginosa, TB151, Table 2, read-out: MIC
[5] = Proteus vulgaris, TB162, Table 2, read-out: MIC

Molecule	MIC [1, 2] [µg/mL]	MIC (Proteus vulgaris TB-162; [3]) [µg/mL]	MIC [1, 4] [µg/mL]	MIC (Proteus vulgaris TB-162; [5]) [µg/mL]	MIC ([1]; Table 2) [µg/mL]	MIC (Proteus vulgaris TB-162; Table 2) [µg/mL]
NC[C@H]1O[C@H](O[C@H]2[C@H](O)[C@@H](O[C@H]3O[C@H](CO)[C@@H](O)[C@H](N)[C@H]3O)[C@H](NC(=O)C3(O)CCNC3)C[C@@H]2N)[C@H](O)[C@@H](O)[C@@H]1O (stereo partly drawn) [KM-A der., 1-N-(3-hydroxypyrrolidine-3-carbonyl)-kanamycin A]	6.25 (≈ 10.5 µM)	3.13 (≈ 5.24 µM)	–	–	–	–
NC[C@H]1O[C@H](O[C@H]2[C@H](O)[C@@H](O[C@H]3O[C@H](CO)[C@@H](O)[C@H](N)[C@H]3O)[C@H](N)C[C@@H]2N)[C@H](O)[C@@H](O)[C@@H]1O [KM-A, kanamycin A]	> 100	> 100	> 200	> 200	–	–
CN[C@@H]1[C@@H](O)[C@@H](O[C@@H]2[C@@H](O)[C@H](O[C@H]3OC(CN)=CC[C@H]3N)[C@@H](N)C[C@H]2N)OC[C@]1(C)O [SSM, sisomicin]	–	–	> 200	12.5 (≈ 27.9 µM)	–	–
NC[C@H]1O[C@H](O[C@H]2[C@H](O)[C@@H](O[C@H]3O[C@H](CO)[C@@H](O)[C@H](N)[C@H]3O)[C@H](NC(=O)C3(O)CCNCC3)C[C@@H]2N)[C@H](N)C[C@@H]1O [TOB der.]	3.13 (≈ 5.26 µM)	1.56 (≈ 2.62 µM)	6.25 (≈ 10.5 µM)	6.25 (≈ 10.5 µM)	–	–
NC[C@H]1O[C@H](O[C@H]2[C@H](O)[C@@H](O[C@H]3O[C@H](CO)[C@@H](O)[C@H](N)[C@H]3O)[C@H](N)C[C@@H]2N)[C@H](N)C[C@@H]1O [TOB, tobramycin]	100 (≈ 214 µM)	6.25 (≈ 13.4 µM)	100 (≈ 214 µM)	12.5 (≈ 26.7 µM)	–	–
gentamicin [GM]	–	–	–	–	100	6.25
